Reference: patent US5218089A, “Retro-inverso analogues of thymopentin and the method for their synthesis” (Sclavo S.p.A., priority 1988, dated 1993)

How the values were obtained:
in vitro = conditions: human, heparinized human plasma
Protocol: (§1) The incubations were done at 37° C., and the withdrawn samples of the plasmatic mixture, of 100 μl each, were blocked at the various times by adding trifluoroacetic acid to the extent of 10%, followed by centrifuging at 10,000g for 5 minutes. An aliquot of the supernatant was chromatographed under conditions suitable for showing the change in the peptide concentration at the various times.

[1] = Stability towards enzymatic hydrolysis in heparinized human plasma; conditions: 37° C., about 30 nmoles/ml of plasma
Protocol: as §1

[2] = tested on: lymphocytes which secrete antibodies (PFC); test: Hemolysis plaque (PFC) test of Jerne and Nordin in SRBC-immunized mice; type: in vivo, C3H/HeNCr1Br inbred male mice; conditions: 1 ng of peptide orally 2 hours after SRBC i.v., spleen lymphocytes after 4 days, IgM PFC
Protocol: Specifically, hemolysis plates (PFC) were used for the test, which was conducted by the method described by Jerne and Nordin. The test was carried out by intravenously administering to C3H/HeNCr1Br inbred male mice (Calco-Italia) of 10-12 weeks and about 25 g body weight an apyrogenic saline solution (0.2 ml) containing 1-2×10^8 red blood cells from sheep (SRBC). After two hours, groups each containing 3 mice were treated orally (intragastric tube) with 0.2 ml of saline solution (control) or with 0.2 ml of saline solution containing 1 ng of peptide. After 4 days the mice were killed and the spleen withdrawn and dissociated mechanically to separate the lymphocytes. The thus isolated lymphocytes were washed with minimum essential medium (MEM) (3×15 ml) containing Earle's salts and then resuspended in the same medium (1 ml) at a final concentration of 150,000 cells. Each cell suspension (0.1 ml) was then diluted 1:100 with MEM, 100 μl of each dilution being doubly added to microplate wells containing 25 μl of MEM, 25 μl of a 10% solution of SRBC antigens and 25 μl of guinea pig complement at a final dilution of 1:64. The entire suspension was immediately transferred by capillarity from each well to superimposed slides. […]
At the end of this period the direct hemolysis plaques indicating the number of lymphocytes which secrete antibodies (PFC) are counted by a light contrast viewer.

[3] = action of various proteases; cited from earlier work

Molecule	half-life (in vitro)	Stability towards enzymatic hydrolysis in human plasma (t/2 in minutes) [1]	Plaque formation % control [2]	t1/2 in the plasma [3]
CC(C)C(C(=O)N[C@H](CC(=O)O)NC(=O)C(CCCCN)C(=O)N[C@@H](N)CCCNC(=N)N)C(=O)N[C@@H](Cc1ccc(O)cc1)C(=O)O (some centres unmarked) [Example 1]	> 300 min	> 300 min	–	–
CC(C)[C@H](NC(=O)[C@H](CC(=O)O)NC(=O)C(CCCCN)C(=O)N[C@@H](N)CCCNC(=N)N)C(=O)N[C@@H](Cc1ccc(O)cc1)C(=O)O (some centres unmarked)	22 min	22 min	112 % control	–
H-RKDVY-OH [TP5, H-Arg-Lys-Asp-Val-Tyr-OH]	–	≈ 1.5 minutes	104 % control	1.5 min
